# Laboratory results published in PubChem BioAssay AID1963826 (Molecular Pharmacology Branch, DTP, NCI, 2024).
# Test system: 926638-142-R-J1-PDC complex spheroid viability
# Assay: Anticancer human tumor 926638-142-R-J1-PDC patient-derived endometrial carcinoma cell line growth inhibition [POLQ]
# Details: for IC50: curve of first compound; for viability, T/C: stronger effect = lower value
# Method in brief: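 Growth inhibition in 3D: complex spheroids (tumor PDC, HUVEC, MSC) treated with POLQ inhibitor combinations; where Cmax unknown, highest tested concentration 10 microM, except SN-38 at 1 microM.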
# [1] = second compound 0.0316 µM, first compound 0.0316 µM
# [2] = second compound 0.0316 µM, first compound 0.1 µM
# [3] = second compound 0.1 µM, first compound 0.0316 µM
# [4] = second compound 0.1 µM, first compound 0.1 µM
# [5] = second compound 0.316 µM, first compound 0.0316 µM
# [6] = second compound 0.316 µM, first compound 0.1 µM
# [7] = second compound 1 µM, first compound 0.0316 µM
# [8] = second compound 1 µM, first compound 0.1 µM
# [9] = second compound 3.16 µM, first compound 0.0316 µM
# [10] = second compound 3.16 µM, first compound 0.1 µM
# [11] = second compound 10 µM, first compound 0.0316 µM
# [12] = second compound 10 µM, first compound 0.1 µM
# [13] = second compound 0.0316 µM, first compound 0.316 µM
# [14] = second compound 0.0316 µM, first compound 1 µM
# [15] = second compound 0.0316 µM, first compound 3.16 µM
# [16] = second compound 0.0316 µM, first compound 10 µM
# [17] = second compound 0.1 µM, first compound 0.316 µM
# [18] = second compound 0.1 µM, first compound 1 µM
# [19] = second compound 0.1 µM, first compound 3.16 µM
# [20] = second compound 0.1 µM, first compound 10 µM
# [21] = second compound 0.316 µM, first compound 0.316 µM
# [22] = second compound 0.316 µM, first compound 1 µM
# [23] = second compound 0.316 µM, first compound 3.16 µM
# [24] = second compound 0.316 µM, first compound 10 µM
# [25] = second compound 1 µM, first compound 0.316 µM
# [26] = second compound 1 µM, first compound 1 µM
# [27] = second compound 1 µM, first compound 3.16 µM
# [28] = second compound 1 µM, first compound 10 µM
# [29] = second compound 3.16 µM, first compound 0.316 µM
# [30] = second compound 3.16 µM, first compound 1 µM
# [31] = second compound 3.16 µM, first compound 3.16 µM
# [32] = second compound 3.16 µM, first compound 10 µM
# [33] = second compound 10 µM, first compound 0.316 µM
# [34] = second compound 10 µM, first compound 1 µM
# [35] = second compound 10 µM, first compound 3.16 µM
# [36] = second compound 10 µM, first compound 10 µM
# 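Note: spheroids exposed to drugs for one week before readout.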
# 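Throughout, for viability, T/C: percent viability relative to DMSO vehicle control wells set as 100%.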
structure (smiles),measurement,setting,value
CC[C@@]1(O)C(=O)OCc2c1cc1n(c2=O)Cc2cc3c(CN(C)C)c(O)ccc3nc2-1 + COC1C(OC(N)=O)C(O)C(Oc2ccc3c(O)c(NC(=O)c4ccc(O)c(CC=C(C)C)c4)c(=O)oc3c2C)OC1(C)C,IC50,second compound 0.0316 µM,> 100 nM
same,IC50,second compound 0.1 µM,86.5 nM
same,IC50,second compound 0.316 µM,> 100 nM
same,IC50,second compound 1 µM,66.1 nM
same,IC50,second compound 3.16 µM,98.1 nM
same,IC50,second compound 10 µM,79.5 nM
same,"viability, T/C","second compound 0.0316 µM, first compound 0.000316 µM",102%
same,"viability, T/C","second compound 0.0316 µM, first compound 0.001 µM",92.5%
same,"viability, T/C","second compound 0.0316 µM, first compound 0.00316 µM",85.7%
same,"viability, T/C","second compound 0.0316 µM, first compound 0.01 µM",72.3%
same,"viability, T/C",[1],70.9%
same,"viability, T/C",[2],47.7%
same,"viability, T/C","second compound 0.1 µM, first compound 0.000316 µM",80.4%
same,"viability, T/C","second compound 0.1 µM, first compound 0.001 µM",105%
same,"viability, T/C","second compound 0.1 µM, first compound 0.00316 µM",80.4%
same,"viability, T/C","second compound 0.1 µM, first compound 0.01 µM",75.7%
same,"viability, T/C",[3],72.1%
same,"viability, T/C",[4],46.6%
same,"viability, T/C","second compound 0.316 µM, first compound 0.000316 µM",107%
same,"viability, T/C","second compound 0.316 µM, first compound 0.001 µM",106%
same,"viability, T/C","second compound 0.316 µM, first compound 0.00316 µM",77.9%
same,"viability, T/C","second compound 0.316 µM, first compound 0.01 µM",65.9%
same,"viability, T/C",[5],76.2%
same,"viability, T/C",[6],54.6%
same,"viability, T/C","second compound 1 µM, first compound 0.000316 µM",83.4%
same,"viability, T/C","second compound 1 µM, first compound 0.001 µM",70.5%
same,"viability, T/C","second compound 1 µM, first compound 0.00316 µM",75.8%
same,"viability, T/C","second compound 1 µM, first compound 0.01 µM",73.2%
same,"viability, T/C",[7],60.8%
same,"viability, T/C",[8],43.5%
same,"viability, T/C","second compound 3.16 µM, first compound 0.000316 µM",94.2%
same,"viability, T/C","second compound 3.16 µM, first compound 0.001 µM",93.7%
same,"viability, T/C","second compound 3.16 µM, first compound 0.00316 µM",82.5%
same,"viability, T/C","second compound 3.16 µM, first compound 0.01 µM",83.5%
same,"viability, T/C",[9],72.9%
same,"viability, T/C",[10],48.6%
same,"viability, T/C","second compound 10 µM, first compound 0.000316 µM",84.8%
same,"viability, T/C","second compound 10 µM, first compound 0.001 µM",88.8%
same,"viability, T/C","second compound 10 µM, first compound 0.00316 µM",81.1%
same,"viability, T/C","second compound 10 µM, first compound 0.01 µM",71.1%
same,"viability, T/C",[11],73.8%
same,"viability, T/C",[12],44.2%
CCc1cc2c(N3CCc4c(cc(Cn5ccnc5)cc4-c4cn(C)nc4C(F)(F)F)C3=O)cc(C)nc2c(OC)n1 + COC1C(OC(N)=O)C(O)C(Oc2ccc3c(O)c(NC(=O)c4ccc(O)c(CC=C(C)C)c4)c(=O)oc3c2C)OC1(C)C,IC50,second compound 0.0316 µM,400 nM
same,IC50,second compound 0.1 µM,277 nM
same,IC50,second compound 0.316 µM,313 nM
same,IC50,second compound 1 µM,214 nM
same,IC50,second compound 3.16 µM,244 nM
same,IC50,second compound 10 µM,667 nM
same,"viability, T/C",[1],79.3%
same,"viability, T/C",[2],65.2%
same,"viability, T/C",[13],49.6%
same,"viability, T/C",[14],42.6%
same,"viability, T/C",[15],33.4%
same,"viability, T/C",[16],23.4%
same,"viability, T/C",[3],72.5%
same,"viability, T/C",[4],73%
same,"viability, T/C",[17],46.9%
same,"viability, T/C",[18],27.6%
same,"viability, T/C",[19],26%
same,"viability, T/C",[20],23.8%
same,"viability, T/C",[5],68%
same,"viability, T/C",[6],52%
same,"viability, T/C",[21],52.7%
same,"viability, T/C",[22],43.6%
same,"viability, T/C",[23],31.1%
same,"viability, T/C",[24],23.5%
same,"viability, T/C",[7],88.8%
same,"viability, T/C",[8],60.7%
same,"viability, T/C",[25],46.9%
same,"viability, T/C",[26],31.2%
same,"viability, T/C",[27],28.8%
same,"viability, T/C",[28],28.9%
same,"viability, T/C",[9],60.1%
same,"viability, T/C",[10],58.4%
same,"viability, T/C",[29],47.1%
same,"viability, T/C",[30],35.8%
same,"viability, T/C",[31],27.6%
same,"viability, T/C",[32],21.6%
same,"viability, T/C",[11],66.9%
same,"viability, T/C",[12],65.8%
same,"viability, T/C",[33],62.3%
same,"viability, T/C",[34],43.1%
same,"viability, T/C",[35],29.7%
same,"viability, T/C",[36],25%
C#Cc1c(F)ccc2cc(O)cc(-c3ncc4c(N5CC6CCC(C5)N6)nc(OCC56CCCN5CC(F)C6)nc4c3F)c12 (stereo unspecified) + COC1C(OC(N)=O)C(O)C(Oc2ccc3c(O)c(NC(=O)c4ccc(O)c(CC=C(C)C)c4)c(=O)oc3c2C)OC1(C)C,IC50,second compound 0.0316 µM,> 10000 nM
same,IC50,second compound 0.1 µM,> 10000 nM
same,IC50,second compound 0.316 µM,> 10000 nM
same,IC50,second compound 1 µM,> 10000 nM
same,IC50,second compound 3.16 µM,> 10000 nM
same,IC50,second compound 10 µM,> 10000 nM
same,"viability, T/C",[1],99.4%
same,"viability, T/C",[2],84.1%
same,"viability, T/C",[13],89%
same,"viability, T/C",[14],84.2%
same,"viability, T/C",[15],60.1%
same,"viability, T/C",[16],54.6%
same,"viability, T/C",[3],90.2%
same,"viability, T/C",[4],86.6%
same,"viability, T/C",[17],81.3%
same,"viability, T/C",[18],72.9%
same,"viability, T/C",[19],66.4%
same,"viability, T/C",[20],51.9%
same,"viability, T/C",[5],97.1%
same,"viability, T/C",[6],73.7%
same,"viability, T/C",[21],89.4%
same,"viability, T/C",[22],64.9%
same,"viability, T/C",[23],59.4%
same,"viability, T/C",[24],65.9%
same,"viability, T/C",[7],84.8%
same,"viability, T/C",[8],81.7%
same,"viability, T/C",[25],80.9%
same,"viability, T/C",[26],71.9%
same,"viability, T/C",[27],72.2%
same,"viability, T/C",[28],61.9%
same,"viability, T/C",[9],78.9%
same,"viability, T/C",[10],84.2%
same,"viability, T/C",[29],77.9%
same,"viability, T/C",[30],72.2%
same,"viability, T/C",[31],64.4%
same,"viability, T/C",[32],52.5%
same,"viability, T/C",[11],85.2%
same,"viability, T/C",[12],73.5%
same,"viability, T/C",[33],91.3%
same,"viability, T/C",[34],67.4%
same,"viability, T/C",[35],68.4%
same,"viability, T/C",[36],62.9%
